Measurements: US20260137745A1, “QUERCETAGETIN ENRICHED MARIGOLD EXTRACTS, COMPOSITIONS, METHODS OF PREPARATION AND USE THEREOF” (AVT NATURAL PRODUCTS LTD., priority 2022, published 2026)
Values after ≈ are worked out from the molar mass of the structure shown. Where two headings read alike, the source gives them in different places.

Legend:
[1] = system: Human Adult Epidermal Melanocytes (HAEM); experiment: Cellular melanin inhibition assay; format: cell-based; details: Melanocyte, read-out: melanin inhibition IC50
Description: Cellular melanin inhibition assay is a cell-based assay designed for measuring Melanin inhibition in Human Adult Epidermal Melanocytes (HAEM). Darkly pigmented melanocytes were treated with test samples and incubated for 72 hrs. Post incubation, melanin was extracted and measured at an absorbance of 490 nm to evaluate the non-cytotoxic concentration of test sample (i.e. composition with QG40 extract; the composition with QG90 extract and composition with quercetin) for melanin inhibition.

[2] = Oxygen Radical Absorbance Capacity (ORAC) assay; format: biochemical; details: higher is better
Description: The Oxygen Radical Absorbance Capacity (ORAC) assay is a method that measures the antioxidant capacity of a substance. The ORAC assay measures a fluorescent signal from a probe that is quenched in the presence of Reactive Oxygen Species (ROS). […] In accordance with this protocol, ORAC assay was evaluated (using known protocols) for the composition comprising QG40 extract; the composition comprising QG90 extract and compared the same with composition comprising quercetin. […] Higher the ORAC value, means better performance by the composition.

DPPH Antioxidant Assay = format: biochemical; details: lower is better
Description: DPPH assay is considered a valid accurate and easy method to evaluate radical scavenging activity of antioxidants. DPPH [1,1-diphenyl-2-picryl hydrazyl] is a stable free radical with purple color. Antioxidants reduce DPPH to 1,1-diphenyl-2-picryl hydrazine, a color less compound which is measured at an absorbance of […]. This is an accepted mechanism for screening the antioxidant activity of plant extracts in a concentration dependent manner. Accordingly, the DPPH Antioxidant Assay was conducted as per known protocols for the compositions comprising QG40, and compositions comprising QG90, and Quercetin.

[3] = system: Keratinocyte (HACAT) cells; experiment: Cellular ROS Assay; format: cell-based; details: Homo sapiens, DCF-DA probe, flow cytometry, read-out: ROS inhibition IC50
Description: The Cellular ROS Assay is a cell-based assay designed for measuring Reactive Oxygen Species activity within a cell using the cell-permeable fluorogenic probe 2′. 7′-Di chloro dihydro fluorescein diacetate (DCF-DA). […] ROS induces the modification of carboxy-H2DCFDA that fluoresces green as detected by flow cytometry. ROS inhibition was evaluated for the composition with QG40 extract; the composition with QG90 extract and composition with quercetin.

Row | SMILES | IC50 ([1]; darkly pigmented melanocytes, 72 hrs incubation) [µg/mL] | ORAC value [2] [m1\4 TE/g] | DPPH Scavenging activity (IC50) (DPPH Antioxidant Assay) [µg/mL] | IC50 [3] [µg/mL] | IC50 ([1]; 72 h) [µg/mL]
1 | O=c1cc(CO)occ1O [Kojic acid] | 25 (≈ 176 µM) | – | – | – | –
2 | O.O.O=c1c(O)c(-c2ccc(O)c(O)c2)oc2cc(O)cc(O)c12 [Composition having Quercetin, Quercetin dihydrate] | – | 18.69 | 6.27 | 16.5 | 9.62
